Experiments:
Type in all cases: in vivo
[1] = tested on: giant foxtail (Setaria faberii); assay: Test A postemergence; details: for Foxtail, Giant plant response rating: visual injury rating on 0 to 100 scale (0 no effect, 100 complete control)
Outline: (§1)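 In a loam soil and sand blend, planted seeds got a preemergence directed soil spray, and young plants at the one- to two-leaf stage, 2–10 cm high, got a postemergence application; ~10 d greenhouse hold; injury rated visually, 0 = none, 100 = complete control.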

[2] = tested on: corn (Zea mays); assay: Test A postemergence; details: for Corn plant response rating: visual injury rating on 0 to 100 scale (0 no effect, 100 complete control)
Outline: as §1

[3] = tested on: Kochia (Kochia scoparia); assay: Test A postemergence; details: for Kochia plant response rating: visual injury rating on 0 to 100 scale (0 no effect, 100 complete control)
Outline: as §1

[4] = tested on: blackgrass (Alopecurus myosuroides); assay: Test A postemergence
Outline: as §1

[5] = tested on: ryegrass, Italian (Italian ryegrass, Lolium multiflorum); assay: Test A postemergence; details: for Ryegrass, Italian plant response rating: visual injury rating on 0 to 100 scale (0 no effect, 100 complete control)
Outline: as §1

[6] = tested on: Galium (catchweed bedstraw, Galium aparine); assay: Test A postemergence; details: for Galium plant response rating: visual injury rating on 0 to 100 scale (0 no effect, 100 complete control)
Outline: as §1

[7] = tested on: barnyardgrass (Echinochloa crus-galli); assay: Test A postemergence
Outline: as §1

[8] = tested on: wheat (Triticum aestivum); assay: Test A postemergence; details: for Wheat plant response rating: visual injury rating on 0 to 100 scale (0 no effect, 100 complete control)
Outline: as §1

[9] = tested on: pigweed (Amaranthus retroflexus); assay: Test A postemergence; details: for Pigweed plant response rating: visual injury rating on 0 to 100 scale (0 no effect, 100 complete control)
Outline: as §1

[10] = tested on: ragweed (common ragweed, Ambrosia elatior); assay: Test A postemergence; details: for Ragweed plant response rating: visual injury rating on 0 to 100 scale (0 no effect, 100 complete control)
Outline: as §1

[11] = tested on: ducksalad (Heteranthera limosa); assay: Test B flooded paddy test; details: Flood, 0 to 100 scale where 0 is no effect and 100 is complete control, 13 to 15 d
Outline: (§2)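 Evaluation by eye, against controls, occurred 13–15 d post-treatment in a greenhouse, using a 0 (no effect) to 100 (complete control) scale. Application was into the paddy water, 3 cm deep over the soil, on 2-leaf plants.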

[12] = tested on: sedge, umbrella (small-flower umbrella sedge, Cyperus difformis); assay: Test B flooded paddy test; details: Flood, 0 to 100 scale where 0 is no effect and 100 is complete control, 13 to 15 d
Outline: as §2

[13] = tested on: barnyardgrass (Echinochloa crus-galli); assay: Test B flooded paddy test; details: Flood, 0 to 100 scale where 0 is no effect and 100 is complete control, 13 to 15 d
Outline: as §2

[14] = tested on: rice (Oryra sativa); assay: Test B flooded paddy test; details: Flood, 0 to 100 scale where 0 is no effect and 100 is complete control, 13 to 15 d
Outline: as §2

[15] = tested on: giant foxtail (Setaria faberii); assay: Test A preemergence; details: for Plant response rating, Foxtail, Giant: 125 g ai/ha, preemergence, 0 to 100 scale (0 no effect, 100 complete control); for Foxtail, Giant plant response rating (0 to 100 scale): Preemergence, 500 g ai/ha, 0 is no effect, 100 is complete control
Outline: as §1

[16] = tested on: Kochia (Kochia scoparia); assay: Test A preemergence; details: for Plant response rating, Kochia: 125 g ai/ha, preemergence, 0 to 100 scale (0 no effect, 100 complete control); for Kochia plant response rating (0 to 100 scale): Preemergence, 500 g ai/ha, 0 is no effect, 100 is complete control
Outline: as §1

[17] = tested on: ryegrass, Italian (Italian ryegrass, Lolium multiflorum); assay: Test A preemergence; details: for Plant response rating, Ryegrass, Italian: 125 g ai/ha, preemergence, 0 to 100 scale (0 no effect, 100 complete control); for Ryegrass, Italian plant response rating (0 to 100 scale): Preemergence, 500 g ai/ha, 0 is no effect, 100 is complete control
Outline: as §1

[18] = tested on: barnyardgrass (Echinochloa crus-galli); assay: Test A preemergence; details: for Plant response rating, Barnyardgrass: 125 g ai/ha, preemergence, 0 to 100 scale (0 no effect, 100 complete control); for Barnyardgrass plant response rating (0 to 100 scale): Preemergence, 500 g ai/ha, 0 is no effect, 100 is complete control
Outline: as §1

[19] = tested on: pigweed (Amaranthus retroflexus); assay: Test A preemergence; details: for Plant response rating, Pigweed: 125 g ai/ha, preemergence, 0 to 100 scale (0 no effect, 100 complete control); for Pigweed plant response rating (0 to 100 scale): Preemergence, 500 g ai/ha, 0 is no effect, 100 is complete control
[20] = tested on: ragweed (common ragweed, Ambrosia elatior); assay: Test A preemergence; details: for Plant response rating, Ragweed: 125 g ai/ha, preemergence, 0 to 100 scale (0 no effect, 100 complete control); for Ragweed plant response rating (0 to 100 scale): Preemergence, 500 g ai/ha, 0 is no effect, 100 is complete control
Outline: as §1

[21] = 125 g ai/ha, postemergence, approx. 10 d
[22] = 500 g ai/ha, postemergence, 0 to 100 scale, 0 no effect, 100 complete control
[23] = Postemergence, 125 g ai/ha, visual injury, 0 to 100 scale (0 no effect, 100 complete control), approx. 10 d

Compound	Plant response rating, Foxtail, Giant [1, 22]	Plant response rating, Corn [2, 22]	Plant response rating, Kochia [3, 22]	Plant response rating, Blackgrass [4, 22]	Plant response rating, Blackgrass [4, 23]	Plant response rating, Ryegrass, Italian [5, 22]	Plant response rating, Galium [6, 22]	Plant response rating, Barnyardgrass [7, 22]	Plant response rating, Barnyardgrass [7, 23]	Plant response rating, Wheat [8, 22]	Plant response rating, Pigweed [9, 22]	Plant response rating, Ragweed [10, 22]	Plant response rating, Foxtail, Giant [15]	Foxtail, Giant plant response rating (0 to 100 scale) [15]	Plant response rating, Kochia [16]	Kochia plant response rating (0 to 100 scale) [16]	Plant response rating, Ryegrass, Italian [17]	Ryegrass, Italian plant response rating (0 to 100 scale) [17]	Plant response rating, Barnyardgrass [18]	Barnyardgrass plant response rating (0 to 100 scale) [18]	other results
O=C1NCC(c2cccc(OCC(F)F)c2)C1C(=O)Nc1ccc(F)cc1F (stereo not drawn) [Compound 388]	80	0	0	50	10	0	30	70	30	0	0	0	80	90	0	0	0	0	60	80	Foxtail, Giant plant response rating [1, 21]: 50; Corn plant response rating [2, 21]: 0; Kochia plant response rating [3, 21]: 0; Ryegrass, Italian plant response rating [5, 21]: 0; Galium plant response rating [6, 21]: 0; Wheat plant response rating [8, 21]: 0; Pigweed plant response rating [9, 21]: 0; Ragweed plant response rating [10, 21]: 0; Plant response rating, Ducksalad ([11]; 500 g ai/ha): 75; Plant response rating, Sedge, Umbrella ([12]; 500 g ai/ha): 0; Plant response rating, Barnyardgrass ([13]; 500 g ai/ha): 0; Plant response rating, Rice ([14]; 500 g ai/ha): 0; Plant response rating, Pigweed [19]: 0; Pigweed plant response rating (0 to 100 scale) [19]: 0; Plant response rating, Ragweed [20]: 0; Ragweed plant response rating (0 to 100 scale) [20]: 0
O=C1NCC(c2cccc(OCC(F)F)c2)C1C(=O)Nc1ccccc1F (racemic) [Compound 387]	70	0	0	50	0	0	0	70	70	0	0	0	70	90	0	0	0	0	70	80	Foxtail, Giant plant response rating [1, 21]: 50; Corn plant response rating [2, 21]: 0; Kochia plant response rating [3, 21]: 0; Ryegrass, Italian plant response rating [5, 21]: 0; Galium plant response rating [6, 21]: 0; Wheat plant response rating [8, 21]: 0; Pigweed plant response rating [9, 21]: 0; Ragweed plant response rating [10, 21]: 0; Plant response rating, Ducksalad ([11]; 500 g ai/ha): 75; Plant response rating, Sedge, Umbrella ([12]; 500 g ai/ha): 0; Plant response rating, Barnyardgrass ([13]; 500 g ai/ha): 50; Plant response rating, Rice ([14]; 500 g ai/ha): 20; Plant response rating, Pigweed [19]: 0; Pigweed plant response rating (0 to 100 scale) [19]: 0; Plant response rating, Ragweed [20]: 0; Ragweed plant response rating (0 to 100 scale) [20]: 0
Cc1ccc(C2CNC(=O)C2C(=O)Nc2cccc(F)c2F)cc1F (racemic) [Compound 369]	80	50	60	70	30	50	70	90	90	60	0	30	90	90	50	40	0	20	90	90	Plant response rating, Foxtail, Giant [1, 23]: 20; Plant response rating, Corn [2, 23]: 0; Plant response rating, Kochia [3, 23]: 20; Plant response rating, Ryegrass, Italian [5, 23]: 20; Plant response rating, Galium [6, 23]: 60; Plant response rating, Wheat [8, 23]: 0; Plant response rating, Pigweed [9, 23]: 0; Plant response rating, Ragweed [10, 23]: 0; Plant response rating, Ducksalad ([11]; 250 g ai/ha): 100; Plant response rating, Sedge, Umbrella ([12]; 250 g ai/ha): 0; Plant response rating, Barnyardgrass ([13]; 250 g ai/ha): 20; Plant response rating, Rice ([14]; 250 g ai/ha): 0; Plant response rating, Pigweed [19]: 0; Pigweed plant response rating (0 to 100 scale) [19]: 0; Plant response rating, Ragweed [20]: 60; Ragweed plant response rating (0 to 100 scale) [20]: 60

— US12077503B2, “Substituted cyclic amides and their use as herbicides” (FMC CORPORATION, priority 2015, dated 2024)
